Experimental data: ChEMBL document CHEMBL5131471, “Design, synthesis and mechanism studies of novel dual PARP1/BRD4 inhibitors against pancreatic cancer” (Eur J Med Chem, 2022)
The source made the active and inactive calls. The rule behind the calls is not given here.

Columns and labels:
[1] = Toxicity in nude mouse xenografted with human SW1990 cells assessed as spleen damage at 45 mg/kg, ip administered for 28 days by H and E staining based fluorescence microscopic analysis; format: organism-based; details: in vivo, 672 h, time 28 day
Mus musculus [2] = assay: Upregulation of CCND1 expression in nude mouse xenografted with human SW1990 cells at 45 mg/kg, ip measured after 4 days by Western blot analysis; format: functional, organism-based; details: time 4.0 day
Mus musculus [3] = assay: Upregulation of CDC25B expression in nude mouse xenografted with human SW1990 cells at 45 mg/kg, ip measured after 4 days by Q-PCR analysis; format: functional, organism-based; details: time 4.0 day
SW1990 [4] = assay: Effect on HEXIM1 gene expression in human SW1990 cells at 6 uM by Q-PCR analysis; format: functional, cell-based
SW1990 [5] = assay: Upregulation of BRCA1 expression in human SW1990 cells at 6 uM measured after 4 days by Western blot analysis; format: functional, cell-based; details: time 4.0 day
Mus musculus [6] = assay: Upregulation of CDK6 expression in nude mouse xenografted with human SW1990 cells at 45 mg/kg, ip measured after 4 days by Western blot analysis; format: functional, organism-based; details: time 4.0 day
SW1990 [7] = assay: Inhibition of CCNB1 protein expression in human SW1990 cells at 1 to 2 uM measured after 4 days by Western blot analysis; format: functional, cell-based; details: dose 1-2 µM, time 4.0 day
SW1990 [8] = assay: Effect on BRCA1 gene expression in human SW1990 cells at 1 to 2 uM by Q-PCR analysis; format: functional, cell-based; details: dose 1-2 µM
SW1990 [9] = assay: Induction of DNA damage in human SW1990 cells assessed as increase in tail DNA at 1 to 2 uM incubated for 4 days by comet assay; format: functional, cell-based; details: dose 1-2 µM, time 4.0 day
Mus musculus [10] = assay: Inhibition of homologous recombinant repair in nude mouse xenografted with human SW1990 cells assessed as reversal of olaparib-induced ALDH1A1 expression at 30 mg/kg, ip after 4 days by Western blot analysis; format: functional, organism-based; details: time 4.0 day
Mus musculus [11] = assay: Inhibition of CCNB1 expression in nude mouse xenografted with human SW1990 cells at 30 mg/kg, ip measured after 4 days by Q-PCR analysis; format: functional, organism-based; details: time 4.0 day
Mus musculus [12] = assay: Inhibition of homologous recombinant repair in nude mouse xenografted with human SW1990 cells assessed as reversal of olaparib-induced TOPBP1 expression at 30 mg/kg, ip measured after 4 days by Western blot analysis; format: functional, organism-based; details: time 4.0 day
Mus musculus [13] = assay: Inhibition of CDK6 expression in nude mouse xenografted with human SW1990 cells at 30 mg/kg, ip measured after 4 days by Western blot analysis; format: functional, organism-based; details: time 4.0 day
SW1990 [14] = assay: Effect on BRCA2 gene expression in human SW1990 cells at 1 to 2 uM by Q-PCR analysis; format: functional, cell-based; details: dose 1-2 µM
Mus musculus [15] = assay: Inhibition of CCND1 expression in nude mouse xenografted with human SW1990 cells at 30 mg/kg, ip measured after 4 days by Western blot analysis; format: functional, organism-based; details: time 4.0 day
Mus musculus [16] = assay: Inhibition of homologous recombinant repair in nude mouse xenografted with human SW1990 cells assessed as reversal of olaparib-induced MDC1 expression at 30 mg/kg, ip measured after 4 days by Western blot analysis; format: functional, organism-based; details: time 4.0 day
SW1990 [17] = assay: Effect on FOXO1 gene expression in human SW1990 cells at 1 to 2 uM by Q-PCR analysis; format: functional, cell-based; details: dose 1-2 µM
[18] = Toxicity in nude mouse xenografted with human SW1990 cells assessed as kidney damage at 30 mg/kg, ip administered for 28 days by H and E staining based fluorescence microscopic analysis; format: organism-based; details: in vivo, 672 h, time 28 day
SW1990 [19] = assay: Downregulation of BRD4 expression in human SW1990 cells at 2 uM measured after 4 days by Western blot analysis; format: functional, cell-based; details: time 4.0 day
SW1990 [20] = assay: Effect on TOPBP1 gene expression in human SW1990 cells at 1 to 2 uM by Q-PCR analysis; format: functional, cell-based; details: dose 1-2 µM
Mus musculus [21] = assay: Induction of DNA damage in human SW1990 cells xenografted in nude mouse assessed as increase in gammaH2AX at 30 mg/kg, ip by immunohistochemical analysis; format: functional, organism-based
SW1990 [22] = assay: Downregulation of Ki67 expression in human SW1990 cells at 30 mg/kg, ip measured after 28 days by immuno histochemical staining based fluorescence microscopic analysis; format: functional, organism-based; details: time 28.0 day
SW1990 [23] = assay: Effect on CDC25A gene expression in human SW1990 cells at 1 to 2 uM by Q-PCR analysis; format: functional, cell-based; details: dose 1-2 µM
SW1990 [24] = assay: Antiproliferative activity against human SW1990 cells assessed as inhibition of cell growth measured after 4 days by MTT assay; format: functional, cell-based; details: SW1990, 96 h
SW1990 [25] = assay: Induction of apoptosis in human SW1990 cells assessed as early apoptotic cells at 2 uM measured after 4 days by Annexin V-FITC and propidium iodide staining based flow cytometry (reference value: 1.62%); format: functional; details: time 4 day
[26] = target: Poly [ADP-ribose] polymerase 1 (Homo sapiens, UniProt P09874); assay: Inhibition of PARP1 (unknown origin) using biotinylated NAD+ as substrate by microplate reader method
Mus musculus [27] = assay: Inhibition of PARP1 expression in nude mouse xenografted with human […] cells at 30 mg/kg, ip administered for 28 days by Q-PCR analysis; format: functional, organism-based; details: time 28.0 day
[28] = Toxicity in nude mouse xenografted with human SW1990 cells assessed as lung damage at 15 mg/kg, ip administered for 28 days by H and E staining based fluorescence microscopic analysis; format: organism-based; details: in vivo, 672 h, time 28 day
SW1990 [29] = assay: Effect on c-Myc gene expression in human SW1990 cells at 4 uM by Q-PCR analysis; format: functional, cell-based
[30] = Toxicity in nude mouse xenografted with human SW1990 cells assessed as liver damage at 15 mg/kg, ip administered for 28 days by H and E staining based fluorescence microscopic analysis; format: organism-based; details: in vivo, 672 h, time 28 day
[31] = Toxicity in nude mouse xenografted with human SW1990 cells assessed as heart damage at 15 mg/kg, ip administered for 28 days by H and E staining based fluorescence microscopic analysis; format: organism-based; details: in vivo, 672 h, time 28 day
SW1990 [32] = assay: Induction of cell cycle arrest in human SW1990 cells assessed as accumulation of cells at S phase at 4 uM incubated for 4 days by propidium iodide staining based flow cytometry (reference value: 29.32%); format: functional; details: time 4 day
SW1990 [33] = assay: Effect on CCNB1 gene expression in human SW1990 cells at 4 uM by Q-PCR analysis; format: functional, cell-based
SW1990 [34] = assay: Effect on FOXO1 gene expression in human SW1990 cells at 1 uM in presence of Olaparib by Q-PCR analysis; format: functional, cell-based
SW1990 [35] = assay: Induction of apoptosis in human SW1990 cells assessed as necrotic cells at 4 uM measured after 4 days by Annexin V-FITC/propidium iodide staining based flow cytometry (reference value: 2.45%); format: functional; details: time 4 day
SW1990 [36] = assay: Effect on CDC25A gene expression in human SW1990 cells at 1 uM in presence of Olaparib by Q-PCR analysis; format: functional, cell-based
SW1990 [37] = assay: Effect on BRCA1 gene expression in human SW1990 cells at 4 uM by Q-PCR analysis; format: functional, cell-based
SW1990 [38] = assay: Induction of cell cycle arrest in human SW1990 cells assessed as accumulation of cells at G0/G1 phase at 4 uM incubated for 4 days by propidium iodide staining based flow cytometry (reference value: 64.79%); format: functional; details: time 4 day
[39] = Toxicity in nude mouse xenografted with human SW1990 cells assessed as liver damage at 15 mg/kg, ip administered for 28 days in presence of 45 mg/kg Olaparib by H and E staining based fluorescence microscopic analysis; format: organism-based; details: in vivo, 672 h, time 28 day

Poly [ADP-ribose] polymerase 1, sequence (P09874 whole entry): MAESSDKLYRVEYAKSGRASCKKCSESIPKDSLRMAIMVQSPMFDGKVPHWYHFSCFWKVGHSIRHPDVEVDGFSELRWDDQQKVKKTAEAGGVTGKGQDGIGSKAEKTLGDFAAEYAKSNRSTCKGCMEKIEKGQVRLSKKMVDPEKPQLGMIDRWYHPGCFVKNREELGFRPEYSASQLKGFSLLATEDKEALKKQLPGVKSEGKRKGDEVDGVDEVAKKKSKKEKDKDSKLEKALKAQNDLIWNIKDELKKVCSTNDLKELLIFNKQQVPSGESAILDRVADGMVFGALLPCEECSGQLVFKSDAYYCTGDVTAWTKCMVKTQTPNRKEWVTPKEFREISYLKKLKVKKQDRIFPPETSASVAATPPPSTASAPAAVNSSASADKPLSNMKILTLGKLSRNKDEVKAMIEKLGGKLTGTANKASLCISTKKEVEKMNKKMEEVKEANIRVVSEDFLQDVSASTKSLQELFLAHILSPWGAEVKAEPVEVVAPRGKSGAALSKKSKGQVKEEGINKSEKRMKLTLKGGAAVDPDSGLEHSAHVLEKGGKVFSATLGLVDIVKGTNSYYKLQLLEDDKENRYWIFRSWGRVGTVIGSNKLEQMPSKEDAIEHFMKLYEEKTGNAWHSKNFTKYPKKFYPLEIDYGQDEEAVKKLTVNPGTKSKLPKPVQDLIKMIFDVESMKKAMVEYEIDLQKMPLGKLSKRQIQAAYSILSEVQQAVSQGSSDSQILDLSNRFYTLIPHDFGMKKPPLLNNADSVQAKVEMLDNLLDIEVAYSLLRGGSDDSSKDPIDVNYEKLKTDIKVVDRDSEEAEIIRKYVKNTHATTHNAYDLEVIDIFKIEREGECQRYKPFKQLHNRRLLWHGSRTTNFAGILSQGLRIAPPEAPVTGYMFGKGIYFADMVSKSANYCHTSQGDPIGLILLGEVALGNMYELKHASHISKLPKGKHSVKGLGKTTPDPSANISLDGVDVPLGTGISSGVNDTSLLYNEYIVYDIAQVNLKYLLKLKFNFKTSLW

## O=C(c1cc(Cc2n[nH]c(=O)c3ccccc23)ccc1F)N1CCN(C(=O)C2CC2)CC1 [OLAPARIB]
[1]
  Activity: Non-Toxic
Mus musculus [2]
  Activity: Active
Mus musculus [3]
  Activity: Active
SW1990 [4]
  Activity: Active
SW1990 [5]
  Activity: Active
Mus musculus [6]
  Activity: Active

## Cc1noc(C)c1-c1ccc2c(c1)C(c1ccccc1)N(Cc1nc3c(C(N)=O)cccc3[nH]1)C(=O)N2C (centres undefined)
SW1990 [7]
  inhibition: Active
SW1990 [8]
  Activity: Active
SW1990 [9]
  Activity: Active
Mus musculus [10]
  inhibition: Active
Mus musculus [11]
  inhibition: Active
Mus musculus [12]
  inhibition: Active
Mus musculus [13]
  inhibition: Active
SW1990 [14]
  Activity: Active
Mus musculus [15]
  inhibition: Active
Mus musculus [16]
  inhibition: Active
SW1990 [17]
  Activity: Active
[18]
  Activity: Non-Toxic
SW1990 [19]
  Activity: Active
SW1990 [20]
  Activity: Active
Mus musculus [21]
  Activity: Active
SW1990 [22]
  Activity: Active
SW1990 [23]
  Activity: Active
SW1990 [24]
  IC50: 1340 nM
SW1990 [25]
  Activity: 1.06%
[26]
  IC50: 49 nM
Mus musculus [27]
  inhibition: Active

## Cc1sc2c(c1C)C(c1ccc(Cl)cc1)=N[C@@H](CC(=O)OC(C)(C)C)c1nnc(C)n1-2
[28]
  Activity: Non-Toxic
SW1990 [29]
  Activity: Active
[30]
  Activity: Non-Toxic
[31]
  Activity: Non-Toxic
SW1990 [32]
  Activity: 19.43%
SW1990 [33]
  Activity: Active
SW1990 [34]
  Activity: Active
SW1990 [35]
  Activity: 3.35%
SW1990 [36]
  Activity: Active
SW1990 [37]
  Activity: Active
SW1990 [38]
  Activity: 75.06%
[39]
  Activity: Non-Toxic
